Paper PMC8876255 (Bioorganic & medicinal chemistry letters, 2021)

How the values were obtained:
[1] = tested on: MDA-MB-231 cells; experiment: Cancer cell viability assay; type: cell-based
[2] = tested on: UPR markers sXbp1, HSPA5A (BiP), DDIT3 (CHOP) in MDA-MB-231 cells; experiment: UPR / ER stress gene induction by qPCR; type: cell-based; details: MDA-MB-231, 6 h, 2 times the EC50, qPCR

O=C(CC12CC3CC(CC(C3)C1)C2)NCCCCO [Compound 4]
inhibitory effect on cell growth ([1]; MDA-MB-231 viability assay, negative control): negligible inhibitory effects on cell growth
additive or synergistic effect with JMS-053 on viability ([1]; addition of 20–60 μM 4 to MDA-MB-231 cells treated with JMS-053): failed to detect any changes in viability

N=C1C(=O)NC(=O)c2cc(-c3ccc(OCCCCNC(=O)CC45CC6CC(CC(C6)C4)C5)cc3)sc21 [Compound 7a]
accumulation of spliced Xbp1 transcription factor [2]: moderate accumulation
expression of pro-apoptotic gene CHOP (DDIT3) [2]: strongly enhanced expression

O=C(CC12CC3CC(CC(C3)C1)C2)NCCCCOc1ccc(-c2cc3c(s2)C(=O)C(=O)NC3=O)cc1 [Compound 7b]
accumulation of spliced Xbp1 transcription factor [2]: significantly lower accumulation
